According to US8703805B2 (Exelixis Patent Company LLC, priority 2005, dated 2014):

Tested on: LXRα and/or LXRβ
Experiment: LXR/LXRE co-transfection assay (luciferase reporter, CV-1 cells)
Format: cell-based, human
Conditions: IC50 or EC50 for LXR (LXRα and/or LXRβ, not distinguished), tested as described in Example 109, CV-1 cells
Method in brief: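 Luciferase readout after 20 h compound exposure at 37 °C in CV-1 cells transiently expressing human LXRα or LXRβ with RXRα and an LXRE-driven reporter. Dose-response over 8 points at ½-log spacing, 4 wells each, fitted for EC50/IC50; values average ≥3 independent experiments, efficacy as % of high control.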

SMILES | EC50
CC(O)c1cc(-c2ccc(-c3cccc(S(C)(=O)=O)c3)s2)n(-c2ccccc2Cl)n1 (stereo not drawn) [Example 1157, 1-[1-(2-chlorophenyl)-5-{5-[3-(methylsulfonyl)phenyl]-2-thienyl}-1H-pyrazol-3-yl]ethanol] | < 1000 nM
CC(C)(O)c1cc(-c2ccc(-c3cccc(S(C)(=O)=O)c3)s2)n(-c2ccccc2C(F)(F)F)n1 [Example 1158, 2-(5-{5-[3-(methylsulfonyl)phenyl]-2-thienyl}-1-[2-(trifluoromethyl)phenyl]-1H-pyrazol-3-yl)propan-2-ol] | < 1000 nM
CC(C)(c1cc(-c2ccc(-c3cccc(S(C)(=O)=O)c3)s2)n(-c2ccccc2Cl)n1)N1CCOCC1 [Example 1159, 4-{1-[1-(2-chlorophenyl)-5-{5-[3-(methylsulfonyl)phenyl]-2-thienyl}-1H-pyrazol-3-yl]-1-methylethyl}morpholine] | < 1000 nM
CS(=O)(=O)c1cccc(-c2ccc(-c3cc(C(=O)NCC(F)(F)F)nn3-c3ccccc3Cl)s2)c1 [Example 1161, 1-(2-chlorophenyl)-5-{5-[3-(methylsulfonyl)phenyl]-2-thienyl}-N-(2,2,2-trifluoroethyl)-1H-pyrazole-3-carboxamide] | < 1000 nM
CON(C)C(=O)c1cc(-c2ccc(-c3cccc(S(C)(=O)=O)c3)s2)n(-c2ccccc2Cl)n1 [Example 1162, 1-(2-chlorophenyl)-N-methyl-N-(methyloxy)-5-{5-[3-(methylsulfonyl)phenyl]-2-thienyl}-1H-pyrazole-3-carboxamide] | < 1000 nM
CONC(=O)c1cc(-c2ccc(-c3cccc(S(C)(=O)=O)c3)s2)n(-c2ccccc2Cl)n1 [Example 1163, 1-(2-chlorophenyl)-N-(methyloxy)-5-{5-[3-(methylsulfonyl)phenyl]-2-thienyl}-1H-pyrazole-3-carboxamide] | 1000 to 10000 nM
CS(=O)(=O)c1cccc(-c2ccc(-c3cc(C(O)(C(F)(F)F)C(F)(F)F)nn3-c3ccccc3Cl)s2)c1 [Example 1164, 2-[1-(2-chlorophenyl)-5-{5-[3-(methylsulfonyl)phenyl]-2-thienyl}-1H-pyrazol-3-yl]-1,1,1,3,3,3-hexafluoropropan-2-ol] | < 1000 nM
CC(C)(C(=O)O)c1cccc(-c2ccc(-c3cc(C(F)(F)F)nn3-c3ncccc3C(F)(F)F)s2)c1 [Example 1165, 2-methyl-2-[3-(5-{3-(trifluoromethyl)-1-[3-(trifluoromethyl)pyridin-2-yl]-1H-pyrazol-5-yl}-2-thienyl)phenyl]propanoic acid] | 1000 to 10000 nM
CC(C)(C(=O)O)c1cccc(-c2ccc(-c3cc(C(F)(F)F)nn3Cc3ccc(Cl)s3)s2)c1 [Example 1166, 2-[3-(5-{1-[(5-chloro-2-thienyl)methyl]-3-(trifluoromethyl)-1H-pyrazol-5-yl}-2-thienyl)phenyl]-2-methylpropanoic acid] | < 1000 nM
CC(C)S(=O)(=O)c1cccc(-c2ccc(-c3cc(C(F)(F)F)nn3-c3ccccc3Cl)cc2)c1 [Example 1167, 1-(2-chlorophenyl)-5-{3′-[(1-methylethyl)sulfonyl]biphenyl-4-yl}-3-(trifluoromethyl)-1H-pyrazole] | < 1000 nM
CC(C)S(=O)(=O)c1cccc(-c2ccc(-c3cc(C(F)(F)F)nn3-c3ccccc3C(F)(F)F)cc2)c1 [Example 1168, 5-{3′-[(1-methylethyl)sulfonyl)biphenyl-4-yl}-3-(trifluoromethyl)-1-[2-(trifluoromethyl)phenyl]-1H-pyrazole] | < 1000 nM
CC(C)S(=O)(=O)c1cccc(-c2ccc(-c3cc(C(F)(F)F)nn3-c3ncccc3C(F)(F)F)s2)c1 [Example 1169, 2-[5-(5-{3-[(1-methylethyl)sulfonyl)phenyl}-2-thienyl)-3-(trifluoromethyl)-1H-pyrazol-1-yl]-3-(trifluoromethyl)pyridine] | < 1000 nM
COC(=O)c1cc(-c2ccc(-c3cccc(S(=O)(=O)C(C)C)c3)s2)n(-c2ncccc2C(F)(F)F)n1 [Example 1170, methyl 5-(5-{3-[(1-methylethyl)sulfonyl]phenyl}-2-thienyl)-1-[3-(trifluoromethyl)pyridin-2-yl]-1H-pyrazole-3-carboxylate] | < 1000 nM
CN(C)C(C)(C)c1cc(-c2ccc(-c3cccc(S(C)(=O)=O)c3)s2)n(-c2ccccc2Cl)n1 [Example 1172, 2-[1-(2-chlorophenyl)-5-{5-[3-(methylsulfonyl)phenyl]-2-thienyl}-1H-pyrazol-3-yl]-N,N-dimethylpropan-2-amine] | < 1000 nM
CCC(=O)c1cc(-c2ccc(-c3cccc(S(C)(=O)=O)c3)s2)n(-c2ccccc2Cl)n1 [Example 1173, 1-[1-(2-chlorophenyl)-5-{5-[3-(methylsulfonyl)phenyl]-2-thienyl}-1H-pyrazol-3-yl]propan-1-one] | < 1000 nM
CCC(O)(CC)c1cc(-c2ccc(-c3cccc(S(C)(=O)=O)c3)s2)n(-c2ccccc2Cl)n1 [Example 1174, 3-[1-(2-chlorophenyl)-5-{5-[3-(methylsulfonyl)phenyl]-2-thienyl}-1H-pyrazol-3-yl]pentan-3-ol] | < 1000 nM
CCC(O)c1cc(-c2ccc(-c3cccc(S(C)(=O)=O)c3)s2)n(-c2ccccc2Cl)n1 (stereo not drawn) [Example 1175, 1-[1-(2-chlorophenyl)-5-{5-[3-(methylsulfonyl)phenyl]-2-thienyl}-1H-pyrazol-3-yl]propan-1-ol] | < 1000 nM
C/C(=N\O)c1cc(-c2ccc(-c3cccc(S(C)(=O)=O)c3)s2)n(-c2ccccc2Cl)n1 [Example 1176, (1E)-1-[1-(2-chlorophenyl)-5-{5-[3-(methylsulfonyl)phenyl]-2-thienyl}-1H-pyrazol-3-yl]ethanone oxime] | < 1000 nM
CO/N=C(\C)c1cc(-c2ccc(-c3cccc(S(C)(=O)=O)c3)s2)n(-c2ccccc2Cl)n1 [Example 1177, (1E)-1-[1-(2-chlorophenyl)-5-{5-[3-(methylsulfonyl)phenyl]-2-thienyl}-1H-pyrazol-3-yl]ethanone O-methyloxime] | < 1000 nM
CC(C)(O)c1cc(-c2ccc(-c3cccc(S(C)(=O)=O)c3)s2)n(-c2ncccc2C(F)(F)F)n1 [Example 1178, 2-(5-{5-[3-(methylsulfonyl)phenyl]-2-thienyl}-1-[3-(trifluoromethyl)pyridin-2-yl]-1H-pyrazol-3-yl)propan-2-ol] | < 1000 nM
COC(=S)c1cc(-c2ccc(-c3cccc(S(C)(=O)=O)c3)s2)n(-c2ccccc2C(F)(F)F)n1 [Example 1179, O-methyl 5-{5-[3-(methylsulfonyl)phenyl]-2-thienyl}-1-[2-(trifluoromethyl)phenyl]-1H-pyrazol-3-carbothioate] | 1000 to 10000 nM
CCS(=O)(=O)c1cccc(-c2ccc(-c3cc(C(C)(C)C#N)nn3-c3ccccc3Cl)s2)c1 [Example 1180, 2-[1-(2-chlorophenyl)-5-{5-[3-(ethylsulfonyl)phenyl]-2-thienyl}-1H-pyrazol-3-yl]-2-methylpropanenitrile] | < 1000 nM
CC(O)(c1cc(-c2ccc(-c3cccc(S(C)(=O)=O)c3)s2)n(-c2ccccc2Cl)n1)C(F)(F)F (stereo not drawn) [Example 1181, 2-[1-(2-chlorophenyl)-5-{5-[3-(methylsulfonyl)phenyl]-2-thienyl}-1H-pyrazol-3-yl]-1,1,1-trifluoropropan-2-ol] | < 1000 nM
CC(O)(c1cc(-c2ccc(-c3cccc(S(C)(=O)=O)c3)s2)n(-c2ccccc2Cl)n1)C(F)(F)F (stereo not drawn) [Example 1182, 2-[1-(2-chlorophenyl)-5-{5-[3-(methylsulfonyl)phenyl]-2-thienyl}-1H-pyrazol-3-yl]-1,1,1-trifluoropropan-2-ol] | < 1000 nM
